Source: publication PMC10023787, “Trio-pharmacophore DNA-encoded chemical library for simultaneous selection of fragments and linkers” (Nature Communications, 2023)
Read-outs that look alike come from different tables or passages of the source. Blank lines part the entries; values can stand above or below the compound they belong to.

What was measured:
MMP-2 = target: T1, MMP-2 (Homo sapiens, UniProt P08253); test: MMP-2 inhibition assay (fluorogenic peptide substrate); type: biochemical; conditions: for remaining activity (%): MMP-2; for IC50: n.d: not detected
T1 construct: purchased Sino Biological 10082-HNAH
T1 sequence (P08253 110-660): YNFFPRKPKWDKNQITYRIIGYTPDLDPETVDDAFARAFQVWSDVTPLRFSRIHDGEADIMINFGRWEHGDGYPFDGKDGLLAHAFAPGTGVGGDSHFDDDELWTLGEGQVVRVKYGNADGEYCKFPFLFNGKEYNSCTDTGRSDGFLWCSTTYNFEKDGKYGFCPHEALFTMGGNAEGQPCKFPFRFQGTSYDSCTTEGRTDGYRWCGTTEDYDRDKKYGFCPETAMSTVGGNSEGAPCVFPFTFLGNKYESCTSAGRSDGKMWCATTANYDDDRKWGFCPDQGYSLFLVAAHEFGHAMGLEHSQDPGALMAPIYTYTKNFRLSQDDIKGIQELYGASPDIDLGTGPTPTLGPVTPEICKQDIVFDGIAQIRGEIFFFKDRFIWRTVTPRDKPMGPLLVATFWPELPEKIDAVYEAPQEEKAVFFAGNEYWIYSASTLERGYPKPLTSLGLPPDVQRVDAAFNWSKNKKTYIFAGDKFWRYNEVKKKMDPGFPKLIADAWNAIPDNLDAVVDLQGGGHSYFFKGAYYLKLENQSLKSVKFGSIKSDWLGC
Procedure: (§1) The inhibition by the small molecule compounds against MMP-2/MMP-9 was measured using an assay probing the enzyme proteolytic activity on the substrate DNP-Pro-Leu-Gly-Met-Trp-Ser-Arg (Enzo Life Sciences, USA). All assays were performed in the assay buffer containing 50 mM Tris, 100 mM NaCl. 5 mM CaCl2, and 0.1% Brij 35, pH 7.5. Human proMMP-2 and proMMP-9 were purchased from Sino biological (Germany). The proMMPs were activated by 1 mM APMA in the assay buffer at 37 °C for 2 h. After activation, MMP-2 was diluted to 6.5 nM of final assay concentration, and MMP-9 was diluted by the buffer to reach 10 nM of final assay concentration. In each well, 49 μl of enzyme solution was incubated with 1 μl of compounds of series of concentration (nM-mM in DMSO) at RT for 30 min. 2 μl of the FRET substrate was added right before the measurement at a final concentration of 25 μM. The rate of hydrolysis was monitored by quantifying the emission at 360 nm (ex: 280 nm). The emission was measured with intervals of the 30 s for 30 min with Synergy H1 Plate Reader (Agilent, USA). The measurements were done in triplicate. […] Then, curves were plotted as a function of the concentration of the inhibitor against the relative enzyme activity. Vmax was derived from the detected […] signal for each concentration and logistic fitting was performed to obtain IC50 values using Origin 2019b (OriginLab).

MMP-9 = target: T2, MMP-9 (Homo sapiens, UniProt P14780); test: MMP-9 inhibition assay (fluorogenic peptide substrate); type: biochemical; parameters: remaining enzyme activity (% of control): scale not given here; conditions: for remaining enzyme activity (% of control): MMP-9; for IC50: n.d: not detected
T2 construct: purchased Sino Biological 10327-HNAH
Procedure: as §1

[1] = mean ± SE, Fig. 5d unit inferred, µM, read-out: IC50
[2] = mean ± SE, Fig. 5e prints no unit, µM, read-out: IC50
[3] = Figure 5d, fragment combination joined by linker, read-out: MMP2 IC50
[4] = Figure 5d, fragment combination joined by linker, read-out: MMP9 IC50

T2 sequence (P14780 107-707 limits assumed): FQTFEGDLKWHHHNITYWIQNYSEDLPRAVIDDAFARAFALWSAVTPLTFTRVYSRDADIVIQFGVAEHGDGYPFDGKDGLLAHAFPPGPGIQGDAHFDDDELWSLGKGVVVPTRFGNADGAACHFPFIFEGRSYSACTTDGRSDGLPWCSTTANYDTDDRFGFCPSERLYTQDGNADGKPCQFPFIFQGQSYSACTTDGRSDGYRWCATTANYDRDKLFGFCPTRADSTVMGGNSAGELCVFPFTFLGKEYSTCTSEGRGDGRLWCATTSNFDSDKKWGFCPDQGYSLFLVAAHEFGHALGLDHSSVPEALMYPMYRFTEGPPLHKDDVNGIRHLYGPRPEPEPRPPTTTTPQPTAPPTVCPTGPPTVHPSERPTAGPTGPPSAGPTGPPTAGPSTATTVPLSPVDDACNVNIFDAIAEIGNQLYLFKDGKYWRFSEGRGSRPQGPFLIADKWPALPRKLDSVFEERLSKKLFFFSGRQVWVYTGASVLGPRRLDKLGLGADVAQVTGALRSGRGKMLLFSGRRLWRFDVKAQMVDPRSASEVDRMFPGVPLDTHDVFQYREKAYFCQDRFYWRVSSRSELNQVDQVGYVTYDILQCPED

- IC50 (MMP-2; [3]): 339 µM
- IC50 (MMP-9; [4]): 115 µM
SMILES: O=C(C=CCCCCC(=O)NCc1c[nH]nn1)CC(=O)NCC12CC3CC(CC(C3)C1)C2 [66_787 12]

- IC50 (MMP-2; [3]): 293 µM
- IC50 (MMP-9; [4]): 521 µM
SMILES: O=C(CNC(=O)NC12CC3CC(CC(C3)C1)C2)NCCOCCOCCNC(=O)c1cncc(O)c1 [66_828 10]

- IC50 (MMP-2; [3]): 488 µM
- IC50 (MMP-9; [4]): 77.4 µM
SMILES: O=C(/C=C/CCCCNC(=O)c1cncc(O)c1)CC(=O)NCC12CC3CC(CC(C3)C1)C2 [66_828 12]

Continued, compound first:

SMILES: O=C(C=CCCCCNC(=O)c1cncc(O)c1)CC(=O)NCC12CC3CC(CC(C3)C1)C2 [66+828 Linker 12]
- remaining activity (%) (MMP-2; concentration 0.0156 µM): 99.10
- remaining activity (%) (MMP-2; concentration 0.08 µM): 102.47
- remaining activity (%) (MMP-2; concentration 0.39 µM): 95.82
- remaining activity (%) (MMP-2; concentration 1.95 µM): 94.73
- remaining activity (%) (MMP-2; concentration 9.75 µM): 93.23
- remaining activity (%) (MMP-2; concentration 48.76 µM): 86.38
- remaining activity (%) (MMP-2; concentration 243.80 µM): 70.35
- remaining activity (%) (MMP-2; concentration 1219.00 µM): 22.32
- IC50 (MMP-2; [1]): 488 ± 45.3 µM
- remaining enzyme activity (% of control) (MMP-9; concentration 0.08 µM): 103.52
- remaining enzyme activity (% of control) (MMP-9; concentration 0.39 µM): 103.70
- remaining enzyme activity (% of control) (MMP-9; concentration 1.95 µM): 101.49
- remaining enzyme activity (% of control) (MMP-9; concentration 9.75 µM): 97.37
- remaining enzyme activity (% of control) (MMP-9; concentration 48.76 µM): 61.33
- remaining enzyme activity (% of control) (MMP-9; concentration 243.80 µM): 18.36
- remaining enzyme activity (% of control) (MMP-9; concentration 1219.00 µM): 3.09
- IC50 (MMP-9; [2]): 77.4 ± 13.9 µM

SMILES: O=C(CSCCNC(=O)c1cncc(O)c1)NCC12CC3CC(CC(C3)C1)C2 [66+828 Linker 24]
- remaining activity (%) (MMP-2; concentration 0.00858 µM): 98.41
- remaining activity (%) (MMP-2; concentration 0.0429 µM): 98.85
- remaining activity (%) (MMP-2; concentration 0.21 µM): 87.72
- remaining activity (%) (MMP-2; concentration 1.07 µM): 96.38
- remaining activity (%) (MMP-2; concentration 5.36 µM): 85.18
- remaining activity (%) (MMP-2; concentration 26.80 µM): 89.19
- remaining activity (%) (MMP-2; concentration 670.10 µM): 1.11
- remaining activity (%) (MMP-2; concentration […]): 61.21
- IC50 (MMP-2; [1]): 184 ± 17.3 µM
- remaining enzyme activity (% of control) (MMP-9; concentration 0.0429 µM): 93.34
- remaining enzyme activity (% of control) (MMP-9; concentration 0.21 µM): 95.33
- remaining enzyme activity (% of control) (MMP-9; concentration 1.07 µM): 103.77
- remaining enzyme activity (% of control) (MMP-9; concentration 5.36 µM): 97.03
- remaining enzyme activity (% of control) (MMP-9; concentration 26.80 µM): 82.56
- remaining enzyme activity (% of control) (MMP-9; concentration 670.10 µM): 15.33
- remaining enzyme activity (% of control) (MMP-9; concentration […]): 65.61
- IC50 (MMP-9; [2]): 216 ± 47.3 µM
